Results taken from patent publication US20060052421A1, “Conjugation agent” (Eastman Kodak Company, priority 2004, published 2006).

Experiments:
[1] = Thiol reactivity: substitution reaction of the conjugation agent with MESNA, followed by HPLC; settings: for krel (MESNA): Table 2, water soluble conjugation agents, determined as for Table 1
Procedure: (§1) The measures of thiol reactivities, thiol chemoselectivities, and aqueous stabilities were determined by the rate constants for the corresponding processes, i.e., relative rate constants for reaction with thiol-containing groups (thiol reactivity), the ratio of thiol to amine rate constants (chemoselectivity for thiol-containing groups), and the rate constant for decomposition of the non-bonded conjugation agent in an aqueous environment (aqueous stability). Equations used in the interpretation of kinetic experiments may be found in J. H. Espenson, Chemical Kinetics and Reaction Mechanisms; McGraw-Hill: New York, 1981.
For the reactivity measurements, […] (MESNA) was used as the thiol-containing target, and lysine (Lys) was used as the amine target. The relevant reaction sequences are shown below, where LG is a leaving group, such as a halide, or alternatively a leaving group of the invention (Sx—Rs), such as an N-ethylmercaptotetrazolyl (EMT) group. All reactions were carried out at standard temperature and pressure. [drawing 20]
(§2) The general structure of the conjugation agents used in Example 1 is shown below in formula V, and details of the structure for each conjugation agent are provided in Table 1. […] The selectivity is the ratio of krel(MESNA)/krel(Lys). The lifetime (τ) of a conjugation agent was measured as the time required for loss of about 66% of the starting amount in the solution of 80% phosphate buffer (pH 7)/20% acetonitrile. […] The progress of the reactions was followed by high performance liquid chromatography (HPLC) for up to 1 week. For lifetimes longer than about one week, the values were estimated based on the observed extent of decomposition, where possible. Conjugates labeled “I” are inventive; those labeled “C” are comparative. [drawing 21]
(§3) The hydrolytic stability data was determined as the lifetime (r) as defined above, but in neutral (pH 7) aqueous phosphate buffer. Formulas for comparative conjugation agents C4-C10, and inventive conjugation agents I2-I6, are shown below. [drawing 22] [drawing 23]

[2] = Aqueous stability: lifetime of the non-bonded conjugation agent (hydrolysis), followed by HPLC; type: physicochemical; settings: Table 2, neutral (pH 7) aqueous phosphate buffer, time for loss of about 66%
Procedure: as §1, §2
Selectivity values were generated using the lowest detection limit of the equipment as the value of krel(Lys).
as §3

[3] = Transamination of I7 with a lysine amide; settings: ambient temperature, pH 5.65
Text: Inventive conjugation agent I7 is an example of a conjugation agent designed to sequentially link a substrate containing amine groups, such as a support coated with gelatin, to a target containing thiol groups. [drawing 24] I7 was formed by conversion of the carboxylic acid functionality in I5 into a sulfosuccinate ester via standard procedures shown below in Example 3. This provided a functional group that was reactive towards amine groups. Near quantitative reaction of I7 with a corresponding lysine amide was conducted under transamination conditions (ambient temperature, pH 5.65, bimolecular rate constant for transamination, kbi=3.3 M^−1min^−1). This reaction was carried out under mildly acidic conditions to minimize the known competing hydrolysis of the sulfosuccinate ester. The resultant conjugate was called I8.

Structure (SMILES)	krel (MESNA) [1]	further results
C=CS(=O)(=O)CS(=O)(=O)C=C [C9, bis(vinylsulfonyl)methane, reference compound]	0.7	Lifetime [2]: 0.75 days
CCN1C(=O)C=CC1=O [C10, N-ethylmaleimide, reference compound]	24.3	Lifetime [2]: 1 days
CCn1nnnc1Sc1cc(C(=O)NCCC(=O)O)c([N+](=O)[O-])cc1[N+](=O)[O-] [I3]	0.1	–
CCn1nnnc1Sc1c(C(=O)NCCC(=O)O)cc([N+](=O)[O-])cc1[N+](=O)[O-] [I4]	0.4	Reactivity towards thiol-containing groups relative to C6 ([1]; Table 2 data): 100 times
CCn1nnnc1Sc1c([N+](=O)[O-])cc(C(=O)NCCC(=O)O)cc1[N+](=O)[O-] [I5]	1.0	krel(thiol, I5)/krel(thiol, 12) ([1]; ratio of Table 2 krel values): about 125
CCn1nnnc1Sc1cc[n+](Cc2ccccc2)cc1 [I6]	1.9	Lifetime ([2]; nd = hydrolysis not detected): 24 days
CCn1nnnc1Sc1c([N+](=O)[O-])cc(C(=O)NCCC(=O)ON2C(=O)CC(S(=O)(=O)[O-])C2=O)cc1[N+](=O)[O-].[Na+] (stereo not drawn) [I7]	–	bimolecular rate constant for transamination, kbi [3]: 0.055 M⁻¹ s⁻¹
